The subject of experiment [1] is AsPC-1 cells containing homozygous KRAS-G12D activating mutation. Kind of experiment: Cellular phospho-ERK assay with 10% FBS (Examples 107a-256). The format is cell-based. The method, then: 5% CO2 for 2 hours. […] Assay plates were read on a EnVision Multimode Plate Reader (PerkinElmer) and the ratio of p-Erk vs total Erk in each well was used as the final readout.

Experiment [2] deals with KRAS protein containing G12D mutation (Homo sapiens (Human), UniProt P01116, G12D). The experiment is described as follows: SOS-catalyzed nucleotide exchange assay (GNE), TR-FRET. The format is biochemical. To be noted: biotinylated KRAS G12D, SOS and GTP, 60-minute incubation. The method, then:
Compounds are added to this complex and then after a 60-minute incubation time the mixture is treated with SOS and unlabeled GTP. Small molecule inhibitors stabilize the Bodipy-GDP complex whereas the untreated protein rapidly exchanges Bodipy-GDP for unlabeled GTP resulting in reduced TR-FRET signal.
This solution is referred to as biotinylated KRAS G12D stock solution.

The mark [3] stands for this setting: read-out: IC50 (nM) pERK (cell with FBS 10%), AsPC-1 cells, 10% fetal bovine serum, 2 hours, ratio of p-Erk vs total Erk.
Setting [4] is: Homo sapiens, ASPC1, 2 h, read-out: IC50 (nM) pERK (cell with FBS 10%), AsPC-1 cells, 10% fetal bovine serum, 2 hours, ratio of p-Erk vs total Erk.
Where [5] appears, read: Homo sapiens, ASPC1, 2 h, read-out: IC50 (nM) pERK (cell with FBS 10%).

Molecules are shown by their SMILES. Structures can show the parent of a compound that is named as a salt. Where two headings read alike, the source gives them in different places.

Chain of KRAS protein containing G12D mutation (P01116 other isoform, or with tags, fused parts or gaps G12D (already in the parent)): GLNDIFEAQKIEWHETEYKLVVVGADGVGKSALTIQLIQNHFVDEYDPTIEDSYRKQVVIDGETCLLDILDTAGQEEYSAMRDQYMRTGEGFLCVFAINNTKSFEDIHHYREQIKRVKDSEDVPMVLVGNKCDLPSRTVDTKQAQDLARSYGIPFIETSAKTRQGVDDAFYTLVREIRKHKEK

Regarding `C[C@]12CCC(CN(c3nc(OC[C@@]45CCCN4C[C@H](F)C5)nc4c(F)c(-c5cc(O)cc(Cl)c5C(F)(F)F)c(F)cc34)C1)N2` (single isomer, unassigned) [Ex. 183a], the values for the IC50 in experiment [1] (setting [3]) and in experiment [2] were 6070 nM and 347 nM, respectively.

With `C[C@]12CCC(CN(c3nc(OC[C@H]4CC[C@@]5(CO)CCCN45)nc4c(F)c(-c5cc(O)cc6cccc(Cl)c56)c(F)cc34)C1)N2` [243a, 5-chloro-4-(6,8-difluoro-2-(((38,7aS)-7a-(hydroxymethyl)hexahydro-1H-pyrrolizin-3-yl)methoxy)-4-((1S,5R)-1-methyl-3,8-diazabicyclo[3.2.1]octan-3-yl)quinazolin-7-yl)naphthalen-2-ol], the IC50 in experiment [1] (setting [4]) came to 30000 nM; in experiment [2], 346 nM.

As for `C#Cc1cccc2cc(O)cc(-c3c(F)cc4c(N5C[C@H]6CC[C@@](C)(C5)N6)nc(OC)nc4c3F)c12` (single isomer, unassigned) [Ex. 171a, TFA], the IC50 was found to be 7720 nM in experiment [1] (setting [4]) and 1260 nM in experiment [2].

For `CCC(=O)Oc1cc(-c2c(F)cc3c(N4CC5CC[C@@](C)(C4)N5)nc(OC[C@@]45CCCN4C[C@H](F)C5)nc3c2F)c2c(Cl)cccc2c1` (single isomer, unassigned) [Ex. 162b], the IC50 in experiment [1] (setting [3]) came out at 2390 nM; in experiment [2], 495 nM.

For the compound `CCc1cccc2cccc(-c3c(F)cc4c(N5C[C@H]6CC[C@@](C)(C5)N6)nc(OC[C@@]56CCCN5C[C@H](F)C6)nc4c3F)c12` [Ex. 141, 7-(8-ethylnaphthalen-1-yl)-6,8-difluoro-2-(((2R,7aS)-2-fluorotetrahydro-1H-pyrrolizin-7a(5H)-yl)methoxy)-4-((1S,5R)-1-methyl-3,8-diazabicyclo[3.2.1]octan-3-yl)-quinazoline, TFA], the IC50 is 16400 nM in experiment [1] (setting [4]) and 139 nM in experiment [2].

`C[C@]12CC[C@H](CN(c3nc(OC[C@@]45CCCN4C[C@H](F)C5)nc4c(F)c(-c5cc(O)cc(Cl)c5Cl)c(F)cc34)C1)N2` (single isomer, unassigned) [Ex. 129b, HCl]: the IC50 was 3010 nM in experiment [1] (read-out: IC50 (nM) pERK (cell with FBS 10%), AsPC-1 cells, 10% fetal bovine serum, 2 hours, ratio of p-Erk vs total Erk, HCl) and 14.1 nM in experiment [2].

For `C[C@]12CC[C@H](CN(c3nc(OCC45CCCN4CCC(F)(F)C5)nc4c(F)c(-c5cc(O)cc6cccc(Cl)c56)c(F)cc34)C1)N2` (single isomer, unassigned) [Example 116b], the IC50 was 14000 nM in experiment [1] (setting [4]) and 473 nM in experiment [2].

Regarding `C#Cc1ccc(F)c2cccc(-c3c(F)cc4c(N5C[C@H]6CC[C@@](C)(C5)N6)nc(OC[C@@]56CCCN5C[C@H](F)C6)nc4c3F)c12` [Ex. 196, 7-(8-ethynyl-5-fluoro-naphthalen-1-yl)-6,8-difluoro-2-(((2R,7aS)-2-fluorotetrahydro-1H-pyrrolizin-7a(5H)-yl)-methoxy)-4-((1S,5R)-1-methyl-3,8-diaza-bicyclo[3.2.1]octan-3-yl)quinazoline], the IC50 was determined as 3410 nM in experiment [1] (setting [4]) and 45.7 nM in experiment [2].

Take `C[C@@]12CC[C@H](CN(c3nc(OC[C@@]45CCCN4C[C@H](F)C5)nc4c(F)c(-c5cccc6ccc(F)c(F)c56)c(F)cc34)C1)N2` [compound 197, 7-(7,8-difluoronaph-thalen-1-yl)-6,8-difluoro-2-(((2R,7aS)-2-fluorotetrahydro-1H-pyrrolizin-7a(5H)-yl)-methoxy)-4-((1S,5R)-1-methyl-3,8-diaza-bicyclo[3.2.1]octan-3-yl)quinazoline]: the results for the IC50 in experiment [1] (setting [4]) and in experiment [2] were 4470 nM and 52.4 nM, respectively.

Turning to `Cc1cc(N)nc(-c2c(Cl)cc3c(N4C[C@H]5CC[C@@H](C4)N5)nc(OC[C@@]45CCCN4C[C@H](F)C5)nc3c2F)c1C(F)(F)F` [Ex. 228b, 6-(4-((1R,5S)-3,8-diazabicyclo[3.2.1]octan-3-yl)-6-chloro-8-fluoro-2-(((2R,7aS)-2-fluorotetrahydro-1H-pyrrolizin-7a(5H)-yl)methoxy)quinazolin-7-yl)-4-methyl-5-(trifluoromethyl)pyridin-2-amine], the IC50 in experiment [1] (setting [5]) came to 64.4 nM; in experiment [2], 2.43 nM.

For the compound `C[C@]12CCC(CN(c3nc(OCC45CCCN4CC(C(F)F)C5)nc4c(F)c(-c5cc(O)cc6cccc(Cl)c56)c(F)cc34)C1)N2` (single isomer, unassigned) [Ex. 173-1b], the IC50 in experiment [1] (setting [3]) was 2890 nM; in experiment [2] it was 22.1 nM.

As for `Cc1cc2[nH]nc(C)c2c(-c2c(F)cc3c(N4C[C@H]5CC[C@@H](C4)N5)nc(OCC4(CN5CCOCC5)CC4)nc3c2F)c1OC(F)F` [Ex. 127, 4-((1-(((4-((1R,5S)-3,8-diazabicyclo[3.2.1]octan-3-yl)-7-(5-(difluoromethoxy)-3,6-dimethyl-1H-indazol-4-yl)-6,8-difluoroquinazolin-2-yl)oxy)methyl)cyclopropyl)methyl) morpholine], the results for the IC50 in experiment [1] (setting [4]) and in experiment [2] were 3600 nM and 39 nM, respectively.

With `C#Cc1cccc2nc(N)nc(-c3c(F)cc4c(N5C[C@H]6CC[C@@H](C5)N6)nc(OC[C@@]56CCCN5C[C@H](F)C6)nc4c3F)c12` [compound 235, 4′-((1R,5S)-3,8-diazabicyclo[3.2.1]octan-3-yl)-5-ethynyl-6′,8′-difluoro-2′-(((2R,7aS)-2-fluorotetrahydro-1H-pyrrolizin-7a(5H)-yl)methoxy)-[4,7′-biquinazolin]-2-amine], the IC50 in experiment [1] (setting [4]) was 910 nM; in experiment [2], 91.7 nM.

As for `Cc1cc(N)nc(-c2c(Cl)cc3c(N4CC5CC(O)C(C4)N5)nc(OC[C@@]45CCCN4C[C@H](F)C5)nc3c2F)c1C(F)(F)F` (single isomer, unassigned) [249b], the IC50 in experiment [1] (setting [4]) is 360 nM; in experiment [2], 1.52 nM.

As to `Oc1cc(Cl)c(C(F)(F)F)cc1-c1c(F)cc2c(N3CC4CCC(C3)N4)nc(OC[C@@]34CCCN3C[C@H](F)C4)nc2c1F` (single isomer, unassigned) [Ex. 256], the results for the IC50 in experiment [1] (setting [4]) and in experiment [2] were 5870 nM and 246 nM, respectively.

For `C[C@]12CCC(CN(c3nc(OC[C@@H]4CC[C@H]5CC(F)(F)CCN45)nc4c(F)c(-c5cc(O)cc6cccc(Cl)c56)c(F)cc34)C1)N2` (single isomer, unassigned) [Ex. 175a], the figures for the IC50 in experiment [1] (setting [4]) and in experiment [2] were 6450 nM and 738 nM, respectively.

As to `C#Cc1cccc2nc(N)cc(-c3c(F)cc4c(N5CC6CCC(C5)N6)nc(OC[C@@]56CCCN5C[C@H](F)C6)nc4c3F)c12` (single isomer, unassigned) [Ex. 203b], the figures for the IC50 in experiment [1] (setting [3]) and in experiment [2] were 120 nM and 3.32 nM, respectively.

As for `Cc1cc2[nH]ncc2c(-c2c(F)cc3c(N4CC5CCC(C4)N5)nc(OC[C@@]45CCCN4C[C@H](F)C5)nc3c2F)c1C(F)(F)F` [Ex. 140, 4-((1R,5S)-3,8-diazabicyclo[3.2.1]octan-3-yl)-6,8-difluoro-2-(((2R,7aS)-2-fluorotetrahydro-1H-pyrrolizin-7a(5H)-yl)meth-oxy)-7-(6-methyl-5-(trifluoromethyl)-1H-indazol-4-yl)quin-azoline, TFA], the IC50 was found to be 113 nM in experiment [1] (setting [4]) and 3.88 nM in experiment [2].

Regarding `Cc1cc(N)nc(-c2c(F)cc3c(N4CC5CC[C@@](C)(C4)N5)nc(OC[C@@]45CCCN4C[C@H](F)C5)nc3c2F)c1C(F)(F)F` (single isomer, unassigned) [Ex. 200a], the IC50 in experiment [1] (setting [4]) came to 1220 nM; in experiment [2], 72.9 nM.

For `Cc1c(F)c(N)nc(-c2c(Cl)cc3c(N4C[C@H]5CC[C@@H](C4)N5)nc(OC[C@@]45CCCN4C[C@H](F)C5)nc3c2F)c1C(F)(F)F` [Ex. 236], the figures for the IC50 in experiment [1] (setting [3]) and in experiment [2] were 68.7 nM and 3.11 nM, respectively.

Consider `C[C@]12CC[C@H](CN(c3nc(OC[C@@]45CCCN4C[C@H](F)C5)nc4c(F)c(-c5cncc6cccc(Cl)c56)c(F)cc34)C1)N2` (single isomer, unassigned) [Ex. 167], for which the IC50 worked out at 8440 nM in experiment [1] (setting [4]) and 414 nM in experiment [2].

Regarding `COCCN(C)C[C@@]1(COc2nc(N3CC4CC[C@@](C)(C3)N4)c3cc(F)c(-c4c(C(F)(F)F)c(C)cc5[nH]ncc45)c(F)c3n2)CC1(F)F` [Ex. 223, (1S,5R)-3-(2-(((R)-2,2-difluoro-1-(((2-methoxyethyl)(methyl)amino)-methyl)cyclopropyl)methoxy)-6,8-difluoro-7-(6-methyl-5-(trifluorometh-yl)-1H-indazol-4-yl)quinazolin-4-yl)-1-methyl-3,8-diazabicyclo[3.2.1]-ocan-8-ium 2,2,2-trifluoroacetate], the IC50 came out at 27300 nM in experiment [1] (setting [4]) and 425 nM in experiment [2].

As for `C#Cc1c(F)ccc2cccc(-c3c(F)cc4c(N5CC6CC[C@@](C)(C5)N6)nc(OCC56CCCN5C(COC(=O)N(C)C)CC6)nc4c3F)c12` (single isomer, unassigned) [242a], the IC50 in experiment [1] (setting [3]) came out at 135 nM; in experiment [2] it was 1.15 nM.

Regarding `Nc1cc(-c2c(F)cc3c(N4CC5CCC(C4)N5)nc(OC[C@@]45CCCN4C[C@H](F)C5)nc3c2F)c2c(Cl)cccc2n1` (single isomer, unassigned) [Ex. 231b], the values for the IC50 in experiment [1] (setting [3]) and in experiment [2] were 326 nM and 38.4 nM, respectively.

On to `C#Cc1cccc2cc(O)cc(-c3c(F)cc4c(N5CC6CC[C@@](C)(C5)N6)nc(OCC5(CN6CC[C@@H](F)C6)CC5)nc4c3F)c12` (single isomer, unassigned) [Ex. 169], for which the IC50 in experiment [1] (setting [5]) was found to be 73 nM; in experiment [2], 0.7 nM.

In the case of `Cc1cc2[nH]ncc2c(-c2c(F)cc3c(N4C[C@H]5CC[C@@](C)(C4)N5)nc(OC[C@@]45CCCN4C[C@H](F)C5)nc3c2F)c1OC(F)(F)F` (single isomer, unassigned) [Ex. 126b], the IC50 worked out at 3460 nM in experiment [1] (setting [3]) and 67.9 nM in experiment [2].

The values above are taken from patent US20240239788A1, “SMALL MOLECULE INHIBITORS OF KRAS G12D MUTANT” (Merck Sharp & Dohme LLC, priority 2021, published 2024).
